Patent publication US20260102340A1, “Therapeutic Formulation” (1000739373 Ontario Ltd., priority 2022, published 2026)
Where “and” joins values, the source holds several entries; their conditions need not be identical. Equal entries are not always repeated. Each block holds one compound with its values, some of them ahead of it.

Experiments:
Type in all cases: physicochemical
[1] = Visual solubility of formulations packaged in glass bottles; conditions: for Visual appearance in glass bottles: 5° C.
[2] = Quantitative solubility of melatonin in ethanol/HFA 152a (filtered supersaturated solutions, HPLC)
Protocol: Data was obtained at 5° C. (see FIG. 15 and FIG. 16) and T=20° C. (see FIG. 17 and FIG. 18) and presented as % w/w, μg/50 μl and μg/63 μl (see also Table 4).

[3] = Melatonin drug residual (total can content) after storage at 40° C. and 75% relative humidity; conditions: for Initial Melatonin t = 0 (can content) / Initial Melatonin t = 0, mean: 100 μg/50 μL
Protocol: Drug residual measurements (total can content) was determined following storage at 40° C. and 75% relative humidity.
Each canister type was packaged with metering valve 1908 (Aptar™, 50 μl) (MDI batches OZ211003/RJ/A and OZ211003/RJ/C) and metering valves 1904 (Bespak™ 50 μl, with dip tube 1906) (MDI batches OZ211003/RJ/B and OZ211003/RJ/D).

[4] = Stability of CBD formulation in HFA 134a (residual); conditions: for Residual (% of 5° C. data): Valve Up
Protocol: The stability of a cannabidiol (CBD) formulation in HFA 134a was evaluated over a 6-month period.
The formulation consisted of 3.57% (w/w) CBD, 15% (w/w) ethanol, and HFA 134a. The formulation was packaged in Presspart™ Plasma 14 mL canisters with metering valves 1908 (Aptar™). The canisters were stored in the valve-up orientation for 6 months at 5° C., 25° C., or 40° C. The residual formulation was measured at 1 month and 6 months.

[5] = 6% w/w ethanol, HFA 152a, Plain Aluminum 14 ml canister, Metering Valve 1904 (with dip tube 1906)
[6] = 6% w/w ethanol, HFA 152a, Plain Aluminum 14 ml canister, Metering Valve 1908
[7] = 6% w/w ethanol, HFA 152a, Plasma Coated 14 ml canister, Metering Valve 1904 (with dip tube 1906)
[8] = 6% w/w ethanol, HFA 152a, Plasma coated 14 ml canister, Metering Valve 1908
[9] = Plain Aluminum canister, Metering Valve 1904 (with dip tube 1906), t = 1 month @ 40° C./75% RH, stored Inverted
[10] = Plain Aluminum canister, Metering Valve 1904 (with dip tube 1906), t = 1 month @ 40° C./75% RH, stored Upright
[11] = Plain Aluminum canister, Metering Valve 1904 (with dip tube 1906), t = 3 month @ 40° C./75% RH, stored Inverted (valve down)
[12] = Plain Aluminum canister, Metering Valve 1904 (with dip tube 1906), t = 3 month @ 40° C./75% RH, stored Upright (valve up)
[13] = Plain Aluminum canister, Metering Valve 1908, t = 1 month @ 40° C./75% RH, stored Inverted
[14] = Plain Aluminum canister, Metering Valve 1908, t = 1 month @ 40° C./75% RH, stored Upright
[15] = Plain Aluminum canister, Metering Valve 1908, t = 3 month @ 40° C./75% RH, stored Inverted (valve down)
[16] = Plain Aluminum canister, Metering Valve 1908, t = 3 month @ 40° C./75% RH, stored Upright (valve up)
[17] = Plasma Coated canister, Metering Valve 1904 (with dip tube 1906), t = 1 month @ 40° C./75% RH, stored Inverted
[18] = Plasma Coated canister, Metering Valve 1904 (with dip tube 1906), t = 1 month @ 40° C./75% RH, stored Upright
[19] = Plasma Coated canister, Metering Valve 1904 (with dip tube 1906), t = 3 month @ 40° C./75% RH, stored Inverted (valve down)
[20] = Plasma Coated canister, Metering Valve 1904 (with dip tube 1906), t = 3 month @ 40° C./75% RH, stored Upright (valve up)
[21] = Plasma coated canister, Metering Valve 1908, t = 1 month @ 40° C./75% RH, stored Inverted
[22] = Plasma coated canister, Metering Valve 1908, t = 1 month @ 40° C./75% RH, stored Upright
[23] = Plasma coated canister, Metering Valve 1908, t = 3 month @ 40° C./75% RH, stored Inverted (valve down)
[24] = Plasma coated canister, Metering Valve 1908, t = 3 month @ 40° C./75% RH, stored Upright (valve up)

Visual solubility ([1]; 50 μg/50 μl in 5% ethanol and HFA 134a, T=5° C. and T=20° C.): confirmed visually
Visual solubility ([1]; 100 μg/50 μl (5% w/w ethanol), HFA 152a, 4° C. and 20° C.): soluble
Visual solubility in glass bottles ([1]; 100 μg/50 μl in 12% w/w ethanol and HFA 134a, T=5° C. and T=20° C.): confirmed visually
Visual appearance in glass bottles ([1]; 100 μg/50 μl, 6% w/w ethanol in HFA 152a): clear solutions
Visual appearance in glass bottles ([1]; 200 μg/50 μl, 8% w/w ethanol in HFA 152a): clear solutions
Visual solubility ([1]; 500 μg/50 μl (15% w/w ethanol), HFA 152a, 4° C. and 20° C.): soluble
*Melatonin μg per 56 mg (63 μl) ([2]; 0% w/w ethanol, T = 5° C.): 8 μg per 56 mg (63 μl)
Melatonin %(w/w) in filtered supersaturated HFA152a solution ([2]; 0% w/w ethanol, T = 5° C.): 0.01 %(w/w)
Melatonin μg per 44 mg (50 μl) ([2]; 0% w/w ethanol, T = 5° C.): 6 μg per 44 mg (50 μl)
*Melatonin μg per 56 mg (63 μl) ([2]; 0% w/w ethanol, T = 20° C.): 9 μg per 56 mg (63 μl)
Melatonin %(w/w) in filtered supersaturated HFA152a solution ([2]; 0% w/w ethanol, T = 20° C.): 0.02 %(w/w)
Melatonin μg per 44 mg (50 μl) ([2]; 0% w/w ethanol, T = 20° C.): 7 μg per 44 mg (50 μl)
*Melatonin μg per 56 mg (63 μl) ([2]; 5% w/w ethanol, T = 5° C.): 121 μg per 56 mg (63 μl)
Melatonin %(w/w) in filtered supersaturated HFA152a solution ([2]; 5% w/w ethanol, T = 5° C.): 0.22 %(w/w)
Melatonin μg per 44 mg (50 μl) ([2]; 5% w/w ethanol, T = 5° C.): 95 μg per 44 mg (50 μl)
*Melatonin μg per 56 mg (63 μl) ([2]; 5% w/w ethanol, T = 20° C.): 159 μg per 56 mg (63 μl)
Melatonin %(w/w) in filtered supersaturated HFA152a solution ([2]; 5% w/w ethanol, T = 20° C.): 0.28 %(w/w)
Melatonin μg per 44 mg (50 μl) ([2]; 5% w/w ethanol, T = 20° C.): 125 μg per 44 mg (50 μl)
*Melatonin μg per 56 mg (63 μl) ([2]; 8% w/w ethanol, T = 5° C.): 270 μg per 56 mg (63 μl)
Melatonin %(w/w) in filtered supersaturated HFA152a solution ([2]; 8% w/w ethanol, T = 5° C.): 0.48 %(w/w)
Melatonin μg per 44 mg (50 μl) ([2]; 8% w/w ethanol, T = 5° C.): 212 μg per 44 mg (50 μl)
*Melatonin μg per 56 mg (63 μl) ([2]; 8% w/w ethanol, T = 20° C.): 395 μg per 56 mg (63 μl)
Melatonin %(w/w) in filtered supersaturated HFA152a solution ([2]; 8% w/w ethanol, T = 20° C.): 0.70 %(w/w)
Melatonin μg per 44 mg (50 μl) ([2]; 8% w/w ethanol, T = 20° C.): 310 μg per 44 mg (50 μl)
*Melatonin μg per 56 mg (63 μl) ([2]; 10% w/w ethanol, T = 5° C.): 339 μg per 56 mg (63 μl)
Melatonin %(w/w) in filtered supersaturated HFA152a solution ([2]; 10% w/w ethanol, T = 5° C.): 0.60 %(w/w)
Melatonin μg per 44 mg (50 μl) ([2]; 10% w/w ethanol, T = 5° C.): 266 μg per 44 mg (50 μl)
*Melatonin μg per 56 mg (63 μl) ([2]; 10% w/w ethanol, T = 20° C.): 456 μg per 56 mg (63 μl)
Melatonin %(w/w) in filtered supersaturated HFA152a solution ([2]; 10% w/w ethanol, T = 20° C.): 0.82 %(w/w)
Melatonin μg per 44 mg (50 μl) ([2]; 10% w/w ethanol, T = 20° C.): 359 μg per 44 mg (50 μl)
*Melatonin μg per 56 mg (63 μl) ([2]; 15% w/w ethanol, T = 5° C.): 588 μg per 56 mg (63 μl)
Melatonin %(w/w) in filtered supersaturated HFA152a solution ([2]; 15% w/w ethanol, T = 5° C.): 1.05 %(w/w)
Melatonin μg per 44 mg (50 μl) ([2]; 15% w/w ethanol, T = 5° C.): 462 μg per 44 mg (50 μl)
*Melatonin μg per 56 mg (63 μl) ([2]; 15% w/w ethanol, T = 20° C.): 817 μg per 56 mg (63 μl)
Melatonin %(w/w) in filtered supersaturated HFA152a solution ([2]; 15% w/w ethanol, T = 20° C.): 1.46 %(w/w)
Melatonin μg per 44 mg (50 μl) ([2]; 15% w/w ethanol, T = 20° C.): 642 μg per 44 mg (50 μl)
Initial Melatonin t = 0 (can content) [3, 5]: 15408 µg and 15450 µg and 15897 µg
Initial Melatonin t = 0, mean [3, 5]: 15.6 mg
Initial Melatonin t = 0 (can content) [3, 6]: 16200 µg and 15676 µg and 15379 µg
Initial Melatonin t = 0, mean [3, 6]: 15.8 mg
Initial Melatonin t = 0 (can content) [3, 7]: 15417 µg and 15682 µg and 15292 µg
Initial Melatonin t = 0, mean [3, 7]: 15.5 mg
Initial Melatonin t = 0 (can content) [3, 8]: 15430 µg and 15517 µg and 15810 µg
Initial Melatonin t = 0, mean [3, 8]: 15.6 mg
Residual melatonin at 3-month ([3]; MDIs stored valve down): 93% to 96
Residual Melatonin [3, 9]: 15162 µg and 14967 µg
Residual Melatonin % of t = 0 [3, 9]: 97 % of t = 0
Residual Melatonin [3, 10]: 14959 µg and 15331 µg
Residual Melatonin % of t = 0 [3, 10]: 97 % of t = 0
Residual Melatonin [3, 11]: 14652 µg and 14318 µg
Residual Melatonin % of t = 0 [3, 11]: 93 % of t = 0
Residual Melatonin [3, 12]: 14721 µg and 14847 µg
Residual Melatonin % of t = 0 [3, 12]: 98 % of t = 0
Residual Melatonin [3, 13]: 15171 µg and 15131 µg
Residual Melatonin % of t = 0 [3, 13]: 98 % of t = 0
Residual Melatonin [3, 14]: 15403 µg and 15581 µg
Residual Melatonin % of t = 0 [3, 14]: 100 % of t = 0
Residual Melatonin [3, 15]: 14920 µg and 14914 µg
Residual Melatonin % of t = 0 [3, 15]: 96 % of t = 0
Residual Melatonin [3, 16]: 15600 µg and 15422 µg
Residual Melatonin % of t = 0 [3, 16]: 100 % of t = 0
Residual Melatonin [3, 17]: 14872 µg and 14984 µg
Residual Melatonin % of t = 0 [3, 17]: 97 % of t = 0
Residual Melatonin [3, 18]: 14944 µg and 15211 µg
Residual Melatonin % of t = 0 [3, 18]: 98 % of t = 0
Residual Melatonin [3, 19]: 14634 µg and 14510 µg
Residual Melatonin % of t = 0 [3, 19]: 94 % of t = 0
Residual Melatonin [3, 20]: 14805 µg and 14789 µg
Residual Melatonin % of t = 0 [3, 20]: 98 % of t = 0
Residual Melatonin [3, 21]: 15024 µg and 14980 µg
Residual Melatonin % of t = 0 [3, 21]: 96 % of t = 0
Residual Melatonin [3, 22]: 15578 µg and 15444 µg
Residual Melatonin % of t = 0 [3, 22]: 100 % of t = 0
Residual Melatonin [3, 23]: 14661 µg and 14791 µg
Residual Melatonin % of t = 0 [3, 23]: 94 % of t = 0
Residual Melatonin [3, 24]: 15461 µg and 15469 µg
Residual Melatonin % of t = 0 [3, 24]: 100 % of t = 0
Residual melatonin at 1-month ([3]; all packaging and storage conditions, 40° C./75% RH): 96-98%
Residual melatonin at 3-month ([3]; stored valve up, both canister types, metering valve 1904 (Bespak with dip tube 1906)): 98%
Residual melatonin at 3-month ([3]; stored valve up, both canister types, metering valve 1908 (Aptar)): 100%
Initial time point residual, % of the target formulation ([3]; t = 0, 100 μg/50 μl, 6% w/w ethanol, HFA 152a): 97.5±1.7%
SMILES: COc1ccc2[nH]cc(CCNC(C)=O)c2c1 [Melatonin]

SMILES: C=C(C)[C@@H]1CCC(C)=C[C@H]1c1c(O)cc(CCCCC)cc1O [CBD, cannabidiol]
Stability of CBD-HFA formulations ([4]; 5° C., 25° C. and 40° C.): stable
Residual (% of 5° C. data) ([4]; Batch OZ210527/DAL/G1, 1 month (n = 3), 25° C.): 100.3 % of 5 °C data
Residual (% of 5° C. data) ([4]; Batch OZ210527/DAL/G1, 1 month (n = 3), 40° C.): 98.5 % of 5 °C data
Residual (% of 5° C. data) ([4]; Batch OZ210527/DAL/G1, 3.57% CBD, 15% ethanol, HFA 134a, 1 month (n = 3), 5° C.): 100.00 % of 5 °C data
Residual (% of 5° C. data) ([4]; Batch OZ210527/DAL/G1, 6 month (n = 4), 25° C.): 93.3 % of 5 °C data
Residual (% of 5° C. data) ([4]; Batch OZ210527/DAL/H1, 1 month (n = 3), 25° C.): 100.2 % of 5 °C data
Residual (% of 5° C. data) ([4]; Batch OZ210527/DAL/H1, 1 month (n = 3), 40° C.): 98.1 % of 5 °C data
Residual (% of 5° C. data) ([4]; Batch OZ210527/DAL/H1, 3.57% CBD, 15% ethanol, HFA 134a, 1 month (n = 3), 5° C.): 100.0 % of 5 °C data
Residual (% of 5° C. data) ([4]; Batch OZ210527/DAL/H1, 6 month (n = 4), 25° C.): 93.5 % of 5 °C data
